Reference: patent USRE49918E1, “Cytotoxic benzodiazepine derivatives” (priority 2011, dated 2024)
Read-outs that look alike come from different tables or passages of the source.

Key:
[1] = test system: KB cells; test: In vitro potency (WST-8 cell viability assay), KB; format: cell-based; settings: Homo sapiens, read-out: IC50 KB
Procedure: (§1) General Procedure Used: Samples of unconjugated free drug compounds or drug conjugates were added to 96-well flat bottomed tissue culture plates and titrated using serial dilutions to cover the desired molar range. Antigen positive (Ag^+) or Antigen negative (Ag^−) cells were added to the wells in specific cell densities in such a way that there were triplicate samples for each drug concentration for each corresponding cell line. The plates were then incubated at 37° C. in an atmosphere of 5% CO2 for 4-5 days depending on the cell line. COLO 205 (1,000 cells/well), Namalwa (3,000 cells/well), HEL 92.1.7 (3,000 cells/well)—4 days; RH30 (1,000 cells/well), HL60/QC (5,000 cells/well), Ramos (10,000 cells/well), KB (2,000 cells/well), BJAB (2,000 cells/well), NB4 (3,000 cells/well)—5 days, RPMI 8226 (8,000 cells/well)—6 days.
(§2) At the end of the incubation period cytotoxic potencies were then assessed using a WST-8 based cell viability assay and surviving cells were measured by developing with WST-8 (2-7 hours). The absorbance in each well was measured and the surviving fraction of cells at each concentration was plotted to reveal the cytotoxicity and/or antigen specificity (of the conjugates).
(§3) Using the general procedure described above, the cytotoxicity of the unconjugated free drug compounds was measured against seven cell lines: KB, a HeLa cell contaminant, HL60/QC, an acute myeloid leukemia cell line, Namalwa, a Burkitt lymphoma cell line, NB4, an acute promyelocytic leukemia cell line, HEL92.1.7, an erythroleukemia cell line, RPMI8226, a multiple myeloma cell line and BJAB, a B-cell leukemia cell line. […] The potency and specificity of the antibody-drug conjugates were measured against antigen-expressing cells, with and without the additions of an excess amount of blocking unconjugated antibody to show specificity of the killing effect. The MY9-6-drug conjugate was extremely potent towards three different antigen-expressing cells: HL60/ATCC, HL60/QC and NB-4, despite the very low antigen expression in NB4 cells. […] Similarly, the huFOLR1-drug conjugate was effective in killing antigen-expressing KB cells in a specific manner. Results are illustrated in FIGS. 25 and 26.

[2] = test system: HL60/QC cells; test: In vitro potency (WST-8 cell viability assay), HL60/QC; format: cell-based, human
Procedure: as §1, §2, §3
To compare in vitro potency measurements for the subject conjugates prepared with and without imine reactive reagent, such as sodium bisulfite, huMy9-6-BMPS-1f, huMy9-6-sulfo-SPDB-1f, and huMy9-6-Drug 2 were prepared with and without sodium bisulfite using the in situ sulfonation method (wherein the respective compounds of the invention was first mixed with sodium bisulfite and a bifunctional crosslinker bearing a reactive group, then the reaction mixture, without further purification, was reacted with the huMy9-6 monoclonal antibody as the cell-binding agent). IC50s for the conjugates on HL60-QC cells are shown below.

[3] = test system: Namalwa, a Burkitt lymphoma cell line; test: In vitro potency (WST-8 cell viability assay), Namalwa; format: cell-based; settings: read-out: IC50 Namalwa
Procedure: as §1, §2, §3

[4] = test system: NB4, an acute promyelocytic leukemia cell line; test: In vitro potency (WST-8 cell viability assay), NB4; format: cell-based; settings: read-out: IC50 NB4
Procedure: as §1, §2, §3

[5] = test system: HEL92.1.7, an erythroleukemia cell line; test: In vitro potency (WST-8 cell viability assay), HEL92.1.7; format: cell-based; settings: Homo sapiens
Procedure: as §1, §2, §3

[6] = test system: BJAB, a B-cell leukemia cell line; test: In vitro potency (WST-8 cell viability assay), BJAB; format: cell-based; settings: Homo sapiens, read-out: IC50 BJAB
Procedure: as §1, §2, §3

[7] = test system: RPMI8226, a multiple myeloma cell line; test: In vitro potency (WST-8 cell viability assay), RPMI8226; format: cell-based; settings: Homo sapiens
Procedure: as §1, §2, §3

[8] = Phase I clinical evaluation; cited from earlier work
[9] = test system: HL60/QC tumors; test: In vivo efficacy in HL60/QC tumor bearing nude mice; settings: HL60-QC tumor xenografts; for T/C %: ~20 μg/kg drug dose
Procedure: In this study, the anti-tumor activity of huMY9-6-SPDB-1f was investigated in female nude mice bearing HL60/QC tumors, a human acute myeloid leukemia model. HL60/QC tumor cells, 2×10^6 cells/mouse were subcutaneously inoculated at a volume of 0.1 mL/mouse in the area over the right shoulder of female athymic nude mice, 5 weeks of age. Eight days after tumor cell inoculation mice were randomized into groups (n=6 per group) by tumor volume. Treatment was initiated the day of randomization, and groups included a control group dosed with PBS (200 μL/injection), or a single treatment at various doses (5 to 100 μg/kg) of huMY9-6-SPDB-1f (50 μg/kg 1f dose corresponded to 2.5 mg/kg antibody dose). […] The minimum effective dose was estimated to be 20 μg/kg, which is about 35-fold lower that the maximum tolerated dose.
To compare in vivo efficacy of the subject conjugates prepared with or without an imine reactive group, huMy9-6-Drug 2 were formulated with or without 50 μM sodium bisulfite, and the conjugates were used to treat mice bearing HL60-QC tumor xenografts.

[10] = Homo sapiens, HL-60, free drug, read-out: IC50 HL60/QC
[11] = HEL 92.1.7, free drug, read-out: IC50 HEL92.1.7
[12] = RPMI-8226, free drug, read-out: IC50 RPMI8226

Row | Molecule | IC50 ([1]; free drug) [nM] | IC50 [2, 10] [pM] | IC50 ([3]; free drug) [pM] | IC50 ([4]; free drug) [nM] | IC50 [5, 11] [nM] | IC50 ([6]; free drug) [nM] | IC50 [7, 12] [nM] | further results
1 | COCCOCCOCCN(CC(C)(C)S(C)=S)c1cc(COc2cc3c(cc2OC)C(=O)N2c4ccccc4C[C@H]2C=N3)cc(COc2cc3c(cc2OC)C(=O)N2c4ccccc4C[C@H]2CN3)c1 (stereo partly drawn) [Compound 1d] | 0.18 | 32 | 69 |  |  |  |  | 
2 | COc1cc2c(cc1OCc1cc(COc3cc4c(cc3OC)C(=O)N3c5ccccc5C[C@H]3C=N4)cc(CSCC(C)(C)SSC)c1)N=C[C@@H]1Cc3ccccc3N1C2=O [Compound 27d] | 0.23 | 50 |  | 0.039 | 0.14 | 0.04 | 0.07 | 
3 | COc1cc2c(cc1OCc1cc(COc3cc4c(cc3OC)C(=O)N3c5ccccc5C[C@H]3CN4)cc(CSCC(C)(C)SSC)c1)N=C[C@@H]1Cc3ccccc3N1C2=O [Compound 27e] | 0.39 | 90 |  | 0.13 | 0.2 | 0.12 | 0.24 | 
4 | COc1cc2c(cc1OCc1cc(COc3cc4c(cc3OC)C(=O)N3c5ccccc5C[C@H]3CN4)cc(CSCC(C)(C)SSC)c1)NC[C@@H]1Cc3ccccc3N1C2=O [Compound 27f] | 4.4 | 1700 |  | 1.1 | 1.8 | 1 | > 3 | 
5 | COc1cc2c(cc1OCc1cccc(COc3cc4c(cc3OC)C(=O)N3c5ccccc5C[C@H]3C=N4)c1)N=C[C@@H]1Cc3ccccc3N1C2=O [Compound 29a] | 0.004 | 1 | 2 | 0.0023 | 0.0031 | 0.001 | 0.011 | 
6 | COc1cc2c(cc1OCc1cccc(COc3cc4c(cc3OC)C(=O)N3c5ccccc5C[C@H]3CN4)c1)N=C[C@@H]1Cc3ccccc3N1C2=O [Compound 29b] | 0.007 | 6 | 3 | 0.007 | 0.007 | 0.003 | 0.005 | 
7 | COc1cc2c(cc1OCc1cccc(COc3cc4c(cc3OC)C(=O)N3c5ccccc5C[C@H]3CN4)c1)NC[C@@H]1Cc3ccccc3N1C2=O [Compound 29c] |  |  |  |  |  |  |  | IC50 [1]: 0.057 nM; IC50 [4]: 0.023 nM; IC50 ([5]; HEL 92.1.7, read-out: IC50 HEL92.1.7): 0.027 nM; IC50 [6]: 0.015 nM; IC50 ([7]; RPMI-8226, read-out: IC50 RPMI8226): 0.16 nM; IC50 ([2]; Homo sapiens, HL-60, read-out: IC50 HL60/QC): 30 pM; IC50 [3]: 13 pM
8 | C=C1C[C@H]2C=Nc3cc(OCCCOc4cc5c(cc4OC)C(=O)N4CC(=C)C[C@H]4C=N5)c(OC)cc3C(=O)N2C1 [SJG-136] |  |  |  |  |  |  |  | maximum tolerated dose [8]: 45 μg/m^2
9 | huMy9-6-Drug 2 (conjugate, chains of the INN, looked up, Drug 2 payload) VH: QVQLVESGGGVVQPGRSLRLSCAASGFTFSSFGMHWVRQAPGKGLEWVAYISSGSFTIYYADSVKGRFTISRDNSKNTLYLQMNSLRAEDTAVYYCARMRKGYAMDYWGQGTLVTVSS VL: DVVMTQSPLSLPVTLGQPASISCRSSQIIIHSDGNTYLEWFQQRPGQSPRRLIYKVSNRFSGVPDRFSGSGSGTDFTLKISRVEAEDVGVYYCFQGSHVPHTFGQGTKVEIK |  |  |  |  |  |  |  | IC50 ([2]; HL60-QC cells, antigen blocking with 1 μM unconjugated huMy9-6, conjugate prepared with NaHSO3 (+), read-out: IC50 (pM) huMy9-6 blocking): > 3000 pM; IC50 ([2]; HL60-QC cells, antigen blocking with 1 μM unconjugated huMy9-6, conjugate prepared without NaHSO3 (−), read-out: IC50 (pM) huMy9-6 blocking): > 3000 pM; IC50 ([2]; HL60-QC cells, conjugate prepared with NaHSO3 treatment (+), read-out: IC50): 6.8 pM; IC50 ([2]; HL60-QC cells, conjugate prepared without NaHSO3 treatment (−), read-out: IC50): 16 pM; Minimum effective dose (μg/kg drug) ([9]; conjugate formulated with 50 μM sodium bisulfite (+)): 19 μg/kg drug; Minimum effective dose (μg/kg drug) ([9]; conjugate formulated without 50 μM sodium bisulfite (−)): 18 μg/kg drug; T/C % ([9]; formulated with 50 μM sodium bisulfite (+)): 16%; T/C % ([9]; formulated without sodium bisulfite (−)): 20%
